Data on two molecules can be found in patent US4452817A, “Anaesthetic compositions containing 2,6-diisopropylphenol” (Imperial Chemical Industries PLC, priority 1974, dated 1984).

What is called LD50 is the dose expected to kill half of the subjects tested.

The test system of data set [1] is mice. Briefly: Mean sleeping time of mice after twice the HD50, intravenous. Format: in vivo, mouse. The following applies: for 2,6-diisopropylphenol 27 mg./kg., standard deviation ±0.59 minutes. The procedure: Each of 10 mice is injected intravenously with 27 mg./kg. bodyweight (twice the HD50) of 2,6-diisopropylphenol as a 1% sterile solution described in Example 14.

Data set [2] can be described thus: HD50 (anaesthesia, loss of righting reflex) and LD50 in mice, intravenous. To be noted: mouse, in vivo; for LD50: mice. The procedure:
(§1) Each mouse is various groups of 10 mice is injected intravenously with a 1% sterile solution of 2,6-diisopropylphenol as described in Example 14, the total dose administered being the same within any group but differing between groups.

Data set [3] concerns mice. Described as above. To be noted: Mus musculus, read-out: HD50 (dose required to cause anaesthesia, loss of righting reflex for at least 30 seconds, in 5 out of 10 mice). The procedure: as §1
Data set [4] deals with cat. The following applies: 5 cats, 2% solution.
Data set [5] has as its system cat. The data set can be described thus: Intramuscular anaesthesia in a cat (Example 20). Format: in vivo. To be noted: 35 mg./kg. intramuscularly. The procedure:
Righting reflexes are lost after 15 minutes, after a further 25 minutes anaesthesia has deepened sufficiently to allow intubation to be carried out. Muscle tone returns after a further 60 minutes and thereafter recovery is uneventful.

Data set [6] has as its system cat. To be noted: 10 mg./kg. i.v. plus four supplementary i.v. injections each of 2.0 mg./kg. The source says: A cat weighing 2.5 kg. is anaesthetised exactly as described in Example 17.
For data set [7], the system named is cat. The following applies: 10 mg./kg. i.v., topical anaesthetic applied to the larynx. From the text: A cat is anaesthetised exactly as described in Example 17. […] Anaesthesia is thereafter maintained with an inhalation anaesthetic delivered through an Ayre's T-piece circuit.
Data set [8] relates to mice, rats, rabbits, cats, rhesus or pigtail monkeys, pigs, sheep, horses, or cattle. Briefly: Intravenous anaesthesia in various animal species. In kind it is in vivo. The procedure:
Anaesthesia is produced in less than 1 minute and lasts, depending upon the species and the dose, from 3 to 25 minutes. […] The compound may also be administered intramuscularly.

Another data set deals with pigtail monkey. The following applies: 2% solution. The procedure: A 2% sterile solution of 2,6-diisopropylphenol prepared as described in Example 14 is administered intravenously to a pigtail monkey weighing 6.8 kg. at a rate of 0.05 mg. of phenol/kg. bodyweight/second until a dose of 34 mg. (5 mg./kg. bodyweight) of the phenol has been injected.
The mark [9] stands for this setting: LD50 (dose required to kill 5 out of 10 mice), intravenous, 2,6-diisopropylphenol as 1% sterile solution of Example 14.
Where [10] appears, read: intravenous, single dose of between 2.5 and 10 mg. per kg. bodyweight.

With `CCCC(C)C1(CC)C(=O)NC(=S)NC1=O` (centres unmarked) [thiopentone sodium, reference compound], the “Mean sleeping time after twice the HD50” value in the data set on mice [1] was 5.97 ± 1.63 min. Further, the selectivity ratio in data set [2] was 4.26. For the same molecule, the LD50 in [2] (setting [9]) is 100 mg/kg. The ED50 in the data set with mice [3] turned out to be 23.5 mg/kg.

For the molecule `CC(C)c1cccc(C(C)C)c1O` [2,6-diisopropylphenol], the Induction of anaesthesia result in the data set with cat [4] (10 mg./kg. i.v. at 0.05 mg./kg./second) was “rapid and free from excitment”. Moreover, in the data set with cat [4] (10 mg./kg. i.v.), the Muscle relaxation result is “muscle relaxation is produced”; the “Quality of further recovery” value is “smooth and rapid”; the Spinal reflexes entry was “spinal reflexes are depressed”; the “Time to return of response to painful stimulation” value is “approximately 10 minutes”. The “Mean time from induction to reappearance of righting reflexes” value with cat [4] (10 mg./kg. i.v., standard deviation ±7.35 minutes) was determined as 34 min. In addition, in the data set on cat [4] (10 mg./kg. i.v., ±10.29 minutes), the “Mean time after induction until cat is able to stand again” value was 42.6 min. Further, the “Mean sleeping time after twice the HD50” value with mice [1] amounted to 4.29 min. Besides, in the data set on cat [5] (2% solution), the “Further time (after intubation depth) until muscle tone returns” value turned out to be 60 min, the “Further time after loss of righting reflexes until anaesthesia is deep enough for intubation” value amounted to 25 min, the Quality of recovery result was “uneventful” and the “Time to loss of righting reflexes” value was 15 min. In addition, the “Pain or lesion at the site of injection” value with cat [5] (during the subsequent 7 days) is recorded as “No pain or lesion at the site of injection is observed”. Also, in the data set with cat [6], the “Quality of recovery after the operation” value was “rapid” and the “Time after completion of the operation until cat is able to stand” value worked out at 35 min. In addition, in the data set on cat [6] (2% solution), the “Maintenance of anaesthesia during 45 minute laparotomy” value is “anaesthesia is maintained during that time”. In the data set with cat [7], the Depth of anaesthesia entry is on record as “sufficient depth to allow intubation of the trachea”. The selectivity ratio in data set [2] stood at 4.14. The LD50 in [2] (setting [9]) amounted to 56 mg/kg. The LD50 in data set [2] (LD50 dose in mice (general description)) is 65 mg/kg. Moreover, the ED50 in the data set with mice [3] was 13.5 mg/kg. In addition, in data set [8] (all animals, intravenous, 2.5 to 10 mg. per kg.), the Quality of recovery entry is “normal and rapid”. The Adverse side-effects result in data set [8] (at anaesthetic doses) is reported as “no adverse side-effects are noted”. In data set [8] (setting [10]), the “Quality of anaesthesia produced” value is “smooth and rapid anaesthesia”; the “Time in which anaesthesia is produced” value is “less than 1 minute”. In addition, the Induction of anaesthesia entry in the data set with pigtail monkey (5 mg./kg. i.v. at 0.05 mg./kg./second) is “smooth and rapid”. In the data set with pigtail monkey (5 mg./kg. i.v.), the Duration of anaesthesia entry is reported as “approximately 6 minutes”, the Muscle relaxation entry is reported as “muscle relaxation is produced”, the Quality of recovery result is listed as “rapid” and the Spinal reflexes entry was “spinal reflexes are depressed”. In the data set on pigtail monkey (5 mg./kg. i.v.), the “Time after induction at which recovery is almost complete” value came out at 16 min.
